Tests used:
[1] = DPPH antioxidant assay; type: physicochemical; settings: for % Inhibition (DPPH free radicals): mean ± SEM
Method: To evaluate the in-vitro antioxidant potential of the synthesized derivatives, a previously reported 1,1 Diphenyl, 2 Picrylhydrazyl (DPPH) assay was utilized. The DPPH solution was prepared by dissolving twenty-four mg DPPH in methanol (100 ml). Test sample solutions in various concentrations (62.50 to 1000 μg/mL) were also prepared. From each dilution, 1 ml sample solution was taken to which 1 ml solution of DPPH was added. The solution mixture was incubated at 23°C for 30 minutes in the dark and then subjected to a UV-visible spectrophotometer to note the absorbance at 517 nm. The absorbance values of all samples were taken in triplicate. Ascorbic acid served as positive control, while negative control only contained a solution of DPPH having no test samples. The % free radical scavenging potential of our compounds was determined by the given formula.
% free radical scavenging activity = [drawing 2] x100
X is the control absorbance, whereas X1 is the absorbance of the test sample.

[2] = molecular target: T1, BChE (source equine serum) (Equus caballus, UniProt P81908); assay: biochemical; settings: for inhibition at 62.5 µg/mL / inhibition at 125 µg/mL / inhibition at 250 µg/mL / inhibition at 500 µg/mL / inhibition at 1000 µg/mL: read-out: % BChE Inhibition
T1 construct: from tissue; host or cells: equine serum
T1 sequence (P81908 whole entry): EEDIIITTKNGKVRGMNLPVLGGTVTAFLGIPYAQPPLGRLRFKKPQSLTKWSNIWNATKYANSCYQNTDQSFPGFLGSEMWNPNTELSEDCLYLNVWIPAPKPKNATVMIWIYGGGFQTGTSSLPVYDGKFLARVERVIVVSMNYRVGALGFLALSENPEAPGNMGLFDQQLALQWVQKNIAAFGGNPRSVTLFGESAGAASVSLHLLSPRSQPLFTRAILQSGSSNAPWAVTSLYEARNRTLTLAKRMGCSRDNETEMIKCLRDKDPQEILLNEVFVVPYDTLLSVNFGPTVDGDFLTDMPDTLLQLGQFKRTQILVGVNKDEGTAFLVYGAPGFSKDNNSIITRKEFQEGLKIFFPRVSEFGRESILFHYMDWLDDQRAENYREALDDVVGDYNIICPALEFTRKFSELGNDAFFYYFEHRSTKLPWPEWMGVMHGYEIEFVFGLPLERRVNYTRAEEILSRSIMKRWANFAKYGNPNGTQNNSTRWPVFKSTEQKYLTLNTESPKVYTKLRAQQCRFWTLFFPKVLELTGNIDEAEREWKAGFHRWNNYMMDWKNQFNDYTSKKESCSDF
Method: (§1) The cholinesterase inhibitory potentials of our synthesized compounds were evaluated against cholinesterase enzymes (AChE/BChE). The AChE (source Electric eel) and BChE (source equine serum) were used in the study following previously published Ellman's assay. The assay basic principle involves the hydrolytic breakdown of acetylthiocholine iodide (ATChI) by AChE and butyryl thiocholine iodide (BTChI) by BChE enzymes, leading to the formation of an intermediate compound which is subsequently complexed with 5,5-dithio bis nitrobenzoic acid (DTNB) to form a UV-detectable compound. The yellowish color product indicates the hydrolysis of ATChI and BTChI substrates by respective enzymes, which were analyzed at 412 nm using a UV-visible spectrophotometer. […] A test sample of 1000 µl was taken in a cuvette, to which enzyme solution (50 µl) and DTNB reagent of 50 µL were added. The AChE (0.03 U/ml) and BChE (0.01 U/ml) solutions were prepared in 0.1 M phosphate buffer having pH 8.0. The ATChI and BTChI substrate solutions (0.0005 M) and 0.0002273 M solution of DTNB were prepared using distilled water and stored at 8°C before further use. For 15 minutes, the solution mixture was incubated at 30 °C, after which a solution of the substrate (50 µl) was added and then subjected to spectroscopic analysis. Using a double beam spectrophotometer, the sample absorbance was measured for 4 minutes at 412 nm beside the time of reaction. […] All values were taken in triplicate under the same conditions.
(§2) Enzymatic activity percentage=V/Vmaxx100
(§3) V is the reaction rate in the inhibitor's presence, whereas Vmax is the reaction rate in the absence of the inhibitor.

[3] = molecular target: T2, AChE (source Electric eel) (Electrophorus electricus, UniProt O42275); assay: biochemical; settings: for inhibition at 62.5 µg/mL / inhibition at 125 µg/mL / inhibition at 250 µg/mL / inhibition at 500 µg/mL / inhibition at 1000 µg/mL: read-out: % AChE Inhibition
T2 construct: from tissue
T2 sequence (O42275 24-633): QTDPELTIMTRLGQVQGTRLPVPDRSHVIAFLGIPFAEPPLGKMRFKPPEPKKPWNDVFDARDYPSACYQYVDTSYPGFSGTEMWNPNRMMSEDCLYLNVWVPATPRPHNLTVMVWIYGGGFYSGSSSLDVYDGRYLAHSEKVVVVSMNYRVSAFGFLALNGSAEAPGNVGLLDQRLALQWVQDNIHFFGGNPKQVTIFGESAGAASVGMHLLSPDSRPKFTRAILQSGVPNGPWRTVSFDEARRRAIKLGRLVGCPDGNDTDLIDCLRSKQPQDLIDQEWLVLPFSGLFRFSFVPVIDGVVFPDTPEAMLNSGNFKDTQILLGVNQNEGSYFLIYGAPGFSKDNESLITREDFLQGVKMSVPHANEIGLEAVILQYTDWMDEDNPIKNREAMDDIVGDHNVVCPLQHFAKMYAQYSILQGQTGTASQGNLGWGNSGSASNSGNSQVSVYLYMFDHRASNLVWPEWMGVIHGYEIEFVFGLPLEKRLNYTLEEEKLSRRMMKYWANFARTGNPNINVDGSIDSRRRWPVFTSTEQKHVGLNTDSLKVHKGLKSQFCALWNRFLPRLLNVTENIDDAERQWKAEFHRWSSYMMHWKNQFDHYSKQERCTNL
Method: as §1, §2, §3

[4] = tested on: scopolamine-induced amnesic mice; assay: Elevated Plus Maze (EPM) test in scopolamine-induced amnesic animals; type: in vivo, albino mice; settings: scopolamine 1 mg/kg amnesic mice, i.p., AN-1 10 mg/kg, progesterone 10 mg/kg, galantamine 8 mg/kg; for retention transfer latency (RTL): 24 h after training, disease group 67 sec; for initial transfer latency (ITL): disease group 73 sec
Method: (§4) The mice were divided into the following five groups, and each group had six animals. The standard drug and test samples were carefully administered to the mice via the intraperitoneal route.
(§5) Group IV (Progesterone treated group) = Animals treated with 10 mg/kg progesterone and scopolamine 1 mg/kg.
(§6) Group V (Test compound group) = Animals received 10 mg/kg progesterone derivative (AN-1) and 1 mg/kg scopolamine.
The EPM behavioral test was performed to assess the learning abilities and long-term spatial memory of the experimental animals. The EPM apparatus has the appearance of a plus sign which was 50 cm elevated from the ground. The apparatus has two open arms (50 cm long and 10 cm wide), and two closed arms having dimensions of 20, 50, and 10 cm in height, length, and width, respectively. The open and closed arms were joined with a 10 × 10 central square.
After 30 minutes of the intraperitoneal drug administration on the seventh day of treatment, mice of each group were placed over the open arm end of the EPM apparatus in such a way that their faces were away from the midpoint of the apparatus. Transfer latency (TL) is the time a mouse takes to enter the closed arm entirely with all its legs from the open arm of the apparatus. The time of initial transfer latency (ITL) was observed, and then the animals were allowed freely for 1.5 minutes to search the EPM apparatus.
After twenty-four hours of the training period, test trials were conducted to determine the retention of tasks that were learnt during training. Retention transfer latency (RTL) was measured by placing the experimental mice at the open end of the apparatus, ensuring that they faced away from its midpoint. The mouse was allowed to enter the closed arm entirely with all its legs. A decline in TL compared to ITL indicated an improvement in memory.

[5] = tested on: scopolamine-induced amnesic mice; assay: Open field test (OFT) in scopolamine-induced amnesic animals; type: in vivo, albino mice; settings: i.p., AN-1 10 mg/kg, progesterone 10 mg/kg, galantamine 8 mg/kg; for number of lines crossed: 5 min, disease group 26.33; for number of lines crossed / time spent in the central area: scopolamine 1 mg/kg amnesic mice; for time spent in the central area: 30 min exploration, disease group 4.66; for time spent in the peripheral area: versus scopolamine/disease group
Method: as §4, §5, §6
Open field behavioral test was carried out for the assessment of locomotor activities like the number of line crossing. The apparatus was made from plywood having 81×81×28.5 cm dimensions. Sixteen squares (20×20 cm) were made on the base of the apparatus by drawing four horizontal and four vertical lines. […] Furthermore, exploration time spent by mice in central and peripheral areas of the apparatus was also recorded by allowing the mice for 30 minutes to explore the apparatus.

[6] = tested on: scopolamine-induced amnesic mice; assay: Y-Maze test in scopolamine-induced amnesic animals; type: in vivo, albino mice; settings: scopolamine 1 mg/kg amnesic mice; i.p.; AN-1 10 mg/kg, progesterone 10 mg/kg, galantamine 8 mg/kg; disease group 22.27%
Method: as §4, §5, §6
To determine the effect of synthesized compounds on short-term learning and memory of experimental mice, a Y-Maze test was used. The Y-Maze apparatus consists of three arms that are fixed at 120° angle from each other and have 30 cm length, 20 cm height, and 8 cm width dimensions. After 30 minutes of giving test compounds intraperitoneally, the mouse was positioned at the arm end in such a way that it faced away from the midpoint of the apparatus and was permitted to search the apparatus for five minutes freely. The arm entry sequence and number by each mouse were recorded for 5 minutes using a digital camera. Alternation is defined as the successive entry into 3 dissimilar arms by a mouse (i.e., CBA, BCA, ABC). When the back paws of a mouse were found inside an arm wholly, the arm entry was considered completed. Seventy percent v/v ethanol was used for cleaning the apparatus and to avoid smell cues. The spontaneous alternation performance (SAP) percentage was calculated using the following formula [37]:
% alternation = [(alternations number) / (total arm entries number – 2)] × 100

| SMILES | IC50 [1] | % Inhibition (DPPH free radicals) ([1]; 62.5 µg/ml) | % Inhibition (DPPH free radicals) ([1]; 125 µg/ml) | % Inhibition (DPPH free radicals) ([1]; 250 µg/ml) | % Inhibition (DPPH free radicals) ([1]; 500 µg/ml) | % Inhibition (DPPH free radicals) ([1]; 1000 µg/ml) | IC50 [2] | inhibition at 62.5 µg/mL [2] | inhibition at 125 µg/mL [2] | inhibition at 250 µg/mL [2] | inhibition at 500 µg/mL [2] | inhibition at 1000 µg/mL [2] | IC50 [3] | inhibition at 62.5 µg/mL [3] | inhibition at 125 µg/mL [3] | inhibition at 250 µg/mL [3] | inhibition at 500 µg/mL [3] | inhibition at 1000 µg/mL [3] | further results |
| --- | --- | --- | --- | --- | --- | --- | --- | --- | --- | --- | --- | --- | --- | --- | --- | --- | --- | --- | --- |
| C/C(=N/Cc1ccc(C)cc1)[C@H]1CC[C@H]2[C@@H]3CCC4=CC(=O)CC[C@]4(C)[C@H]3CC[C@]12C [AN2, (8S,9S,10R,13S,14S)-17-((Z)-1-((4-methylbenzyl)imino)ethyl)-10,13-dimethyl-1,2,6,7,8,9,10,11,12,13,14,15,16,17-tetradecahydro-3H-cyc-lopenta[a]phenanthren-3-one] | 62.5 µM | 55.65 ± 2.44% | 57.44 ± 2.47% | 65.77 ± 3.32% | 66.26 ± 1.60% | 71.47 ± 1.83% | 138 µM | 50.8% | 52.9% | 74.1% | 72% | 77.5 ± 1.29% | 173 µM | 48.3% | 57.4% | 64.3% | 75.7 ± 1.26% | 75.7 ± 2.82% | – |
| COc1ccc(C/N=C(/C)[C@H]2CC[C@H]3[C@@H]4CCC5=CC(=O)CC[C@]5(C)[C@H]4CC[C@]23C)cc1OC [AN3, (8S,9S,10R,13S,14S,17S)-17-((Z)-1-((3,4-dimethoxybenzyl)imino)ethyl)-10,13-dimethyl-1,2,6,7,8,9,10,11,12,13,14,15,16,17-tetradecahydro-3H-cyclo-penta[a]phenanthren-3-one] | 86.4 µM | 54.18 ± 2.16% | 56.86 ± 2.33% | 61.18 ± 2.23% | 66.44 ± 2.58% | 72.32 ± 1.37% | 112 µM | 55.5% | 59.9% | 64.3% | 81.8% | 87.9 ± 1.96% | 133 µM | 50.7% | 62.9% | 64.6% | 78.2% | 82.8 ± 2.02% | – |
| C/C(=N/Cc1ccc(Cl)cc1)[C@H]1CC[C@H]2[C@@H]3CCC4=CC(=O)CC[C@]4(C)[C@H]3CC[C@]12C [AN4, (8S,9S,10R,13S,14S,17S)-17-((Z)-1-((4-chlorobenzyl)imino)ethyl)-10,13-dimethyl-1,2,6,7,8,9,10,11,12,13,14,15,16,17-tetradecahydro-3H-cyclopenta [a]phenanthren-3-one] | 188 µM | 46.88 ± 0.65% | 55.52 ± 3.43% | 60.69 ± 1.92% | 66.80 ± 3.47% | 69.87 ± 2.81% | 149 µM | 49.5% | 56.9% | 63.1% | 64.7% | 76.3 ± 1.56% | 213 µM | 47% | 52.7% | 60.3% | 67.7% | 70 ± 2.26% | – |
| C/C(=N/Cc1ccccc1)[C@H]1CC[C@H]2[C@@H]3CCC4=CC(=O)CC[C@]4(C)[C@H]3CC[C@]12C [AN5, (8S,9S,10R,13S,14S)-17-((Z)-1-(benzylimino)ethyl)-10,13-dimethyl-1,2,6,7,8,9,10,11, 12,13,14,15,16,17-tetradecahydro-3H cyclopenta[a]phenan-thren-3-one] | 110 µM | 52.18 ± 1.42% | 56.99 ± 2.50% | 65.46 ± 1.83% | 67.51 ± 2.56% | 73.12 ± 1.04% | 63 µM | 58.1% | 65.9% | 71.4% | 75.8% | 85.5 ± 2.83% | 156 µM | 50.4% | 59.7% | 65.2% | 77.3% | 83.5 ± 2.31% | – |
| O=C1O[C@H]([C@@H](O)CO)C(O)=C1O [Ascorbic Acid, Ascorbic acid, reference compound] | 54.1 µM | 67.69 ± 2.18% | 71.25 ± 4.29% | 74.50 ± 3.04% | 86.00 ± 0.70% | 91.17 ± 1.62% | – | – | – | – | – | – | – | – | – | – | – | – | – |
| COc1ccc2c3c1O[C@H]1C[C@@H](O)C=C[C@@]31CCN(C)C2 [Galantamine, reference compound] | – | – | – | – | – | – | – | 67.2% | 72.9% | 77.4% | 84.4% | 89.5 ± 1.93% | – | – | – | – | – | – | retention transfer latency (RTL) [4]: 38.33 s; initial transfer latency (ITL) [4]: 47.33 s; number of lines crossed [5]: 50.33; time spent in the central area [5]: 13 mint; time spent in the peripheral area [5]: significantly (p<0.01) less time in the peripheral area; spontaneous alternation [6]: 47.56% |
| CC(=O)[C@H]1CC[C@H]2[C@@H]3CCC4=CC(=O)CC[C@]4(C)[C@H]3CC[C@]12C [progesterone] | – | – | – | – | – | – | – | – | – | – | – | – | – | – | – | – | – | – | retention transfer latency (RTL) [4]: 50.33 s; initial transfer latency (ITL) [4]: 56.5 s; number of lines crossed [5]: 42; time spent in the central area [5]: 9.66 mint; time spent in the peripheral area [5]: significant (p˂0.05) decline in time spent peripherally; spontaneous alternation [6]: 40.001% |

Source: PMC12645137 (Current Neuropharmacology, 2025)
